Experimental data taken from ChEMBL document CHEMBL1157764, “Conserved high activity binding peptides are involved in adhesion of two detergent-resistant membrane-associated merozoite proteins to red blood cells during invasion” (J Med Chem, 2010).

species on record: Homo sapiens; assay: Binding affinity to RBC membrane receptor in human RBCs assessed as specific binding activity measured as ratio of specifically bound peptide/added peptide by gamma counter

| Substance | Activity |
| --- | --- |
| H-MAVYNALYEKAQSYNLQKLF-OH | > 2% |
| H-NEQDENVKGMSSSQEMNSNNY-OH | > 2% |
| H-NKTDNGSSFFFAMSNALLVIY-OH | > 2% |
| H-QNNEQEQPKQDDQLLNNNNDY-OH | > 2% |
| H-SDIFFKYNPSENIMDHQEMV-OH | > 2% |
| H-SKINKELAHRTALFNKLADNY-OH | > 2% |
| H-TEEKGKDEQKKDEQKEQDEEY-OH | > 2% |
| H-TLDIEKIEDINLEEVKMSLLY-OH | > 2% |
| H-TLVNNKENKEFVLKEKSSLTY-OH | > 2% |
| H-TNTTPAVYSGSLLSMNNDFE-OH | > 2% |
| H-TSEEKMILIFKCDNKFYITK-OH | > 2% |
| H-VHFMAGGQKYKYEGIDLTDS-OH | > 2% |
| H-VSKFDNNKTIGFVCPVKSSY-OH | > 2% |
| H-YMREIRLLGKCMLSFDEGNN-OH | > 2% |

More lines, now with the values ahead:

| Activity | Substance |
| --- | --- |
| > 2% | H-MFAVNLKICIFLSLVSFLLQY-OH |
| > 2% | H-NDSNDFLKKYAIMGNSFDDG-OH |
| > 2% | H-NEDNKDLEHGSSNDVNNNTDY-OH |
| > 2% | H-NNDDQDEQGNDGDVTSSMNKY-OH |
| > 2% | H-NNEKVVPLSNEPQEIIQPPIY-OH |
| > 2% | H-NYKSTYCVLSNNYRIVVEFD-OH |
| > 2% | H-NYYISPFYDENSIKQEINKK-OH |
| > 2% | H-QEKLNTTDPSKAYIYGANII-OH |
| > 2% | H-RYNEMKRDANPDVYYIYLMD-OH |
| > 2% | H-SEEANDENKDNMQTTTDEGTY-OH |
| > 2% | H-SPNYELSLNSLSDSQNVDIF-OH |
| > 2% | H-TYHLAIVKNEDKLQLAFTYD-OH |
| > 2% | H-YGKEFKWSDPKVIDVSNVIG-OH |
